Results published in patent publication US20240156800A1, “EP300 DEGRADER AND USES THEREOF IN NEUROBLASTOMA” (DANA-FARBER CANCER INSTITUTE, INC., priority 2021, published 2024).

Key:
[1] = tested on: cleaved caspase-3 and cleaved PARP1; assay: Western blotting of apoptosis markers; assay type: cell-based, human
Protocol: (§1) Cells growing in culture were lysed for whole cell lysates as described in Durbin et al. Nat. Genet. 50:1240-1246 (2018) and Wang et al. Nat. Commun. 10:5622 (2019). Nuclear lysates were prepared using the NE-PER® nuclear lysate kit (Thermo Scientific™) according to the manufacturer's protocol. Chromatin lysates were prepared with the total histone extraction kit (Epigentek). Briefly, equivalent amounts of protein were resolved by western blotting using 4-12% Bis-Tris NuPAGE™ gels (Thermo-Fisher Scientific) prior to transfer, and immunoblotting using primary antibodies to: MYCN (1:1000, Cell Signaling Technology®), H3K27ac (1:1000, Abcam), total H3 (1:1000, Cell Signaling Technology®), EP300 (1:1000, Abcam), CBP (1:500, Cell Signaling Technology®), Cas9 (1:1000, Cell Signaling Technology®), cleaved-PARP1 (1:1000, Cell Signaling Technology), cleaved Caspase-3 (1:1000, Cell Signaling Technology®), β-actin (1:1000, Cell Signaling Technology®), GATA3 (1:1000, EMD Millipore™), TFAP2β (1:1000, Cell Signaling Technology®), Vinculin (1:1000, EMD Millipore™), CRBN (1:1000, Cell Signaling Technology®), HAND2 (1:1000, Santa Cruz Biotechnology). Secondary antibodies were horseradish peroxidase (HRP)-conjugated anti-rabbit or anti-mouse (1:5000, Santa Cruz Biotechnology), incubated prior to exposure to enhanced chemiluminescence reagents (GE, Amersham). For immunoprecipitation, equal amounts of protein were diluted in buffer C as described in Mansour et al. Science 346:1373-1377 (2014) and incubated with antibodies covalently conjugated to Dynabeads™ M-270 beads (Thermo-Fisher Scientific) overnight according to the manufacturer's directions. Antibodies used included: H3K27ac, EP300 (Abcam), CBP, TFAP2β (Cell Signaling Technology®), rabbit immunoglobulin G (IgG) (Santa Cruz Biotechnology®). Immunoprecipitated protein was isolated as per the manufacturer's directions and subjected to western blotting, as described above, or mass spectrometry.

[2] = tested on: Kelly, NGP and BE2C NB cells; assay: Propidium iodide DNA flow cytometry (cell cycle, sub-G1); assay type: cell-based, human
Protocol: Cells were infected with lentiviruses encoding single guide RNAs (sgRNAs) or treated with compounds as described for the noted length of time. Cells were then liberated from adhesion to the plate using a sterile spatula (Coming®) followed by centrifugation, aspiration of media, and resuspension in hypotonic citrate-propidium iodide (PI) solution for 30 minutes at 37° C. (Tate et al. Cytometry 4:211-215 (1983)). Nuclei were stabilized using 5M NaCl prior to analysis on a FACSAria™ II (BD Biosciences). Analysis of cell cycle phases was performed using FlowJo® v10.7 (BD Biosciences).

[3] = tested on: Kelly-Cas9 control or CRBN knockout cells; assay: CellTiter-Glo assay of Kelly-Cas9 control or CRBN knockout cells; assay type: cell-based, human; details: range of doses, seven days
Protocol: (§2) Cells were infected with lentiviruses encoding sgRNAs or treated with compounds as described. Colony assays were performed by replating cells at 500 cells per well in 6-well dishes and grown in regular growth media for 10 d before 100% methanol fixation, 0.05% crystal violet staining, and quantitation. Experiments were completed in triplicate; data shown are the average of three independent experiments. Cell Titer-Glo® assay was performed as per the manufacturer's instructions (Promega®). Briefly, 1000 cells/well were plated into 96-well plates and treated with a range of compound dosing. Cell viability was measured at the noted time points based on luminescence by the Cell Titer-Glo® assay (Promega®) and read on an Envision 2104 (PerkinElmer®, USA) according to the manufacturer's protocol.
sgRNAs targeting individual genes were subcloned by standard methodologies within pLKO.5-EFGP. Kelly, SIMA, BE2C, and NGP cells were infected with lenticas9 followed by blasticidin selection. Stable expression of cas9 was established by western blotting of protein lysates using cas9 antibody (Cell Signaling Technology®). Following infection of pLKO.5-EGFP-sgRNA lentivirus, cells were cultured for the identified times prior to evaluation. BE2C cells were infected with pLC-zsgreen or pLC-CRBN lentiviruses and selected using 500 μg/mL hygromycin (Invitrogen™)

H3K27ac = assay: Western blotting of H3K27ac in treated NB cells; assay type: cell-based, human
Protocol: as §1

[4] = tested on: pro- and anti-apoptotic mRNA transcripts; assay: ERCC spike-in RNA-seq of treated Kelly cells; assay type: cell-based, human; details: 500 nM, 24 h
Protocol: For in vitro analyses, total RNA was extracted from control […] or JQAD1 treated Kelly cells using TRIzolTM reagent (Ambion). Prior to extraction, exogenous spike-in of synthetic External RNA Control Consortium (ERCC) RNA controls were added based on cell number (Ambion). Samples were treated with RNAse-free DNAse I and spin purified using the Qiagen® RNeasy Kit (Qiagen®). Purified RNA samples were subjected to library construction with poly-adenylation preparation and sequencing using the Illumina NextSeq® 500 (paired end, 75bp reads). RNA-seq reads were aligned to a reference index containing the sequences of the hg19 revision of the human reference genome and the ERCC spike-in probes using hisat 2.1.0. Expression was quantified using sorted BAMs, a gene reference built using ERCC sizes and RefSeq genes downloaded Jul. 15, 2017, and htseq-count with parameters -I gene_id- stranded=reverse -f bam -m intersection-strict. Read counts were converted to transcripts per million (TPM) and used for cell number-normalization. The expression of all RefSeq genes and ERCC probes was floored at 0.01 and a pseudocount of 0.1 was added to all entries. Values were normalized by equilibrating the expression of the ERCC probes among experiments using normalize.loess from the affy R package. The ERCC-normalized expression of each gene after 24 h of either […] or JQAD1 treatment was compared against its expression in dimethyl sulfoxide (DMSO) treated samples to create two-fold changes.

NB cell lines = assay: Colony formation assays of NB cells with EP300/CBP inhibitors; assay type: cell-based, human; details: multiple NB cell lines (Kelly, BE2C, NB69, NGP); compared with C646 and CBP30
Protocol: as §2

MYCN = assay: Western blotting of MYCN (whole lysates and chromatin extracts); assay type: cell-based, human
Protocol: as §1

His-tagged CRBN = His-tagged CRBN (Homo sapiens, UniProt Q96SW2); assay: AlphaLISA assay with biotinylated pomalidomide and His-tagged CRBN; assay type: binding; details: competition with biotinylated pomalidomide
Protocol: To determine whether JQAD1 interacts with the E3 ligase receptor CRBN, the AlphaLISA® platform was used to perform AlphaLISA® fluorescent assays using biotinylated pomalidomide bound to beads and His-tagged CRBN (Yasgar et al. Methods Mol. Biol. 1439:77-98 (2016)). […] Next, biotinylated JQAD1 (Biotin-JQAD1, Scheme 2) was synthesized and incubated with Kelly cell lysates, followed by streptavidin-based purification. […] PROTAC®s may acquire preferential specificity for one of two possible target enzymes due to restricted three-dimensional interactions, as noted in Burslem and Crews, Cell 181:102-14 (2020).
Assays were performed with minimal modifications from the manufacturer's protocol (PerkinElmer®, USA). Briefly, a 2× solution of components with final concentrations of CRBN-DDB1 at 50 nM, Ni-coated Acceptor Beads at 20 μg/ml, and 15 nM biotinylated-pomalidomide were added in […] to 384-well plates (AlphaPlate-384, PerkinElmer®, USA). 100 nL of compound in DMSO from stock plates were added by pin transfer using a Janus Workstation (PerkinElmer®, USA). Streptavidin-coated donor beads (20 μg/ml final) were added to the solution, followed by incubation at room temperature for 1 hour, and reading on an Envision 2104 (PerkinElmer®, USA), by the manufacturer's protocol.

[5] = BE2C 1 μM, Kelly 500 nM, seven days

His-tagged CRBN, sequence (Q96SW2 whole entry): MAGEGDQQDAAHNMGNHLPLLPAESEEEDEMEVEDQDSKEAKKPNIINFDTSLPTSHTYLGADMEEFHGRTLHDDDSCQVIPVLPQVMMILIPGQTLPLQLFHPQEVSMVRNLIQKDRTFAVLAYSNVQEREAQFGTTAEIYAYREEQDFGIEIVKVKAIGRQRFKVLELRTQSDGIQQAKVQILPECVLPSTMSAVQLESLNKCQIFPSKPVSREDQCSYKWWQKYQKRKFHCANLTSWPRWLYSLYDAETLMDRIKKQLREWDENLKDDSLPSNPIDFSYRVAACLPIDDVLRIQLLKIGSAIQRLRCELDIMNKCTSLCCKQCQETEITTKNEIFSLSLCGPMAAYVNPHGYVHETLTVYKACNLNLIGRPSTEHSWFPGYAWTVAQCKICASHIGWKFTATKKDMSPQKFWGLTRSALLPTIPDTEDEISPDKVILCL
His-tagged CRBN, sequence (Q16531 whole entry partner): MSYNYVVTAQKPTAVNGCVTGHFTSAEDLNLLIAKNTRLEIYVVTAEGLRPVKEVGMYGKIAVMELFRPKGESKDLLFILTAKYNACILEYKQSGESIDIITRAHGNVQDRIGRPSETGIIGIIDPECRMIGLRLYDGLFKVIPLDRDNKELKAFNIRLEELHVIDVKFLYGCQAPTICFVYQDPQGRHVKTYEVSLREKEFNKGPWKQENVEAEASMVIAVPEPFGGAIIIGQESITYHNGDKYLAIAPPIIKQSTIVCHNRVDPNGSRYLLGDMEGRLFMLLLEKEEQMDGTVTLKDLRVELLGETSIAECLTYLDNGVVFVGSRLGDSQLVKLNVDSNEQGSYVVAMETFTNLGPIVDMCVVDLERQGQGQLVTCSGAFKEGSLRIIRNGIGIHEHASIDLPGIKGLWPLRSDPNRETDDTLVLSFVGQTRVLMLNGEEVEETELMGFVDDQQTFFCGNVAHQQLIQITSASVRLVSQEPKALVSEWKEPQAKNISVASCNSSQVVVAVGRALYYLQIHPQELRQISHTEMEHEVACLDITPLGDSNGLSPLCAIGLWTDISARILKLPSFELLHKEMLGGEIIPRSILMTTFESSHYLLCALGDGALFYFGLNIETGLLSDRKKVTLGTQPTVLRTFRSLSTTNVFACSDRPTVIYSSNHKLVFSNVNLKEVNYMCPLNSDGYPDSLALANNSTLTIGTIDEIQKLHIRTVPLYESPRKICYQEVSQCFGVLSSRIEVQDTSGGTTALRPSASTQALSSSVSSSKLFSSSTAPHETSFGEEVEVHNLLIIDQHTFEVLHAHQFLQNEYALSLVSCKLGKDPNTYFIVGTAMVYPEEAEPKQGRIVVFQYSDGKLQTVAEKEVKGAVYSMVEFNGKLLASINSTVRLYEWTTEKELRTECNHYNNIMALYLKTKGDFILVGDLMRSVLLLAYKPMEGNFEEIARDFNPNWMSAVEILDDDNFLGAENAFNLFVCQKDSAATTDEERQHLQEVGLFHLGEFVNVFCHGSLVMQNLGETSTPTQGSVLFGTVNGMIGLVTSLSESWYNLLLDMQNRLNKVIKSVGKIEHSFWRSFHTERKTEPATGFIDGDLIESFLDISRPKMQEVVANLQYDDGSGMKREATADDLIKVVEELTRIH

Row | Structure (SMILES) | cleaved caspase 3 and PARP1 after prolonged treatment [1, 5] | apoptosis: cleavage of caspase-3 and PARP1 ([1]; Kelly (1 μM) and NGP (2.5 μM) cells, 12-36 h) | cell cycle effect ([2]; BE2C, Kelly, NGP cells, within 24 hours) | cell cycle / subG1 effect ([2]; Kelly and NGP cells) | growth of CRBN-knockout Kelly cells [3] | growth of control-edited Kelly cells [3] | H3K27Ac modification after prolonged treatment (H3K27ac; [5]) | H3K27ac modification (H3K27ac; Kelly cells, 24 h) | transcript levels of BIM, BID, PUMA, BAX, BCL2 and MCL1 [4] | reduction of neuroblastoma colony formation (NB cell lines) | MYCN expression after prolonged treatment (MYCN; [5]) | chromatin-bound MYCN (MYCN; Kelly cells, 0.5 and 1 μM, 24 h, chromatin extracts) | interaction with CRBN (His-tagged CRBN)
1 | CNC(=O)Nc1ccc2c(c1)CC[C@@]21OC(=O)N(CC(=O)N(Cc2ccc(F)cc2)[C@@H](C)C(F)(F)F)C1=O [A485] | induction of cleaved caspase 3 and poly [ADP-ribose] polymerase 1 (PARP1) | little effect on these parameters | G1 cell cycle arrest | G1 cell cycle arrest | equivalently inhibited the growth of both CRBN-knockout cells and controls | equivalently inhibited the growth of both CRBN-knockout cells and controls | global loss of the H3K27Ac modification | loss of H3K27ac | unaffected | most potent compound in reducing neuroblastoma colony formation | loss of MYCN expression | did not show MYCN loss from chromatin extracts up to 1.0 μM | did not
2 | Nc1cccc2c1C(=O)N(C1CCC(=O)NC1=O)C2=O (centres unmarked) [pomalidomide] | – | – | – | – | – | – | – | – | – | – | – | – | efficiently interacted with CRBN
